Experimental data published in publication PMC11767929 (Molecules, 2025).
Read-outs that look alike come from different tables or passages of the source.

Legend:
Assay type in all cases: cell-based
[1] = tested on: MCF-7 (human breast adenocarcinoma cell line); experiment: MTT cytotoxicity assay, MCF-7 cells; conditions: for IC50: Homo sapiens, read-out: IC50 MCF-7; for SI (MCF-7): selectivity index: ratio of IC50 NHDF-Neo to IC50 MCF-7
Experimental: (§1) Cytotoxicity screening of the obtained glycoconjugates, their potential metabolites, and substrates used for their synthesis was conducted using the MTT assay.
(§2) All cells were kept in a humidified incubator at 37 °C in a 5% CO2 atmosphere.
(§3) Cell viability was assessed by the MTT (3-[4,5–dimethylthiazol-2-yl]-2,5-diphenyltetrazolium bromide) test (ACROS Organics). Stock solutions of tested compounds were prepared in DMSO and stored accordingly.
(§4) Cells treated with glycoconjugates or potential metabolites were incubated for another 24–72 h (depending on the cell line). Subsequently, 50 µL MTT solution (0.5 mg/mL) in RPMI medium without Phenol Red was added to each well. After 3 h of incubation, the MTT solution was removed, and the precipitated formazan was dissolved in 100 µL of DMSO. Finally, the absorbance of the solubilized formazan crystals was measured at the 570 nm wavelength. Each experiment was carried out in three independent iterations with four technical repetitions. […] Cell viability was expressed as:Cell viability (%) = (ODsample − ODblank)/(ODcontrol − ODblank) × 100%.

[2] = tested on: HCT 116 (human colorectal cancer cell line); experiment: MTT cytotoxicity assay, HCT 116 cells; conditions: for SI (HCT 116): selectivity index: ratio of IC50 NHDF-Neo to IC50 HCT 116; for IC50: read-out: IC50 HCT 116
Experimental: as §1, §2, §3, §4

[3] = tested on: NHDF-Neo (normal human dermal fibroblast-neonatal cells); experiment: MTT cytotoxicity assay, NHDF-Neo healthy cells; conditions: read-out: IC50 NHDF-Neo
Experimental: as §1, §2, §3, §4

[4] = tested on: MCF-7 (human breast adenocarcinoma cell line); experiment: MTT assay in medium with 20 µM CuCl2, MCF-7 cells; conditions: for IC50: Homo sapiens, MCF7, MTT assay, 72 h, read-out: IC50 MCF-7 + Cu2+; for IC50 / SI (MCF-7) + Cu2+: addition of CuCl2 at 20 µM; for increase of cytotoxicity in the presence of Cu(II) ions versus without copper: MCF-7 cells, 20 µM CuCl2; for SI (MCF-7) + Cu2+: ratio of IC50 NHDF-Neo to IC50 MCF-7
Experimental: (§5) Therefore, it seemed reasonable to conduct additional experiments for the glycoconjugates for which the likely mechanism of action is based on the chelation of metal ions. Since copper can be toxic to cells, it was necessary to test the toxicity of different concentrations of copper salt on the proliferation of all cell line types. Cell cultures under standard conditions were treated with copper solutions of various concentrations, and their effect on cell proliferation was verified by the MTT assay. Cells with the non-supplemented medium were used as a reference for 100% cell viability. […] The antiproliferative activities of 8-AQ glycoconjugates were further tested in the presence of the addition of Cu^2+ ions. HCT 116, MCF-7, and NHDF-Neo cells were treated with solutions of glycoconjugates 13–18 in a culture medium supplemented with 20 µM copper chloride, and their proliferation was measured using the MTT assay. The control consisted of cells cultured in a medium with the same concentration of copper salt added. […] This effect was more pronounced for the MCF-7 cell line (Figure 2). A significant decrease in MCF-7 cell proliferation was observed after treatment with glycoconjugates at concentrations of 100 µM and 50 µM in the presence of Cu^2+ compared to treatment with glycoconjugates alone (cell viability 2–23% and 6–79%, respectively, for each glycoconjugate concentration).
(§6) Cells were seeded in 96-well plates at a concentration of 1 × 10^4 (HCT 116, NHDF-Neo) or 5 × 10^3 (MCF-7) per well. Cell cultures were incubated for 24 h at 37 °C in a humidified atmosphere with 5% CO2. The culture medium was then removed and replaced with 100 µL of the tested compounds solution at varying concentrations (from 25 µM to 200 µM) in the medium with the addition of CuCl2. The final concentration of CuCl2 was 20 µM in each well. Following 24 or 72 h of incubation, the MTT assay was performed to assess cell viability.

[5] = tested on: NHDF-Neo (normal human dermal fibroblast-neonatal cells); experiment: MTT assay in medium with 20 µM CuCl2, NHDF-Neo cells; conditions: addition of CuCl2 at 20 µM, 24 h, read-out: IC50 NHDF-Neo + Cu2+
Experimental: as §5, §6

[6] = tested on: HCT 116 (human colorectal cancer cell line); experiment: MTT assay in medium with 20 µM CuCl2, HCT 116 cells; conditions: addition of CuCl2 at 20 µM; for IC50: Homo sapiens, HCT-116, MTT assay, 24 h, read-out: IC50 HCT 116 + Cu2+; for SI (HCT 116) + Cu2+: ratio of IC50 NHDF-Neo to IC50 HCT 116
Experimental: as §5, §6

[7] = MCF7, MTT assay, incubation time 72 h
[8] = MTT assay, incubation time 24 h
[9] = Homo sapiens, HCT-116, 24 h, MTT assay, incubation time 24 h

Row | SMILES | IC50 [1, 7] [µM] | SI (MCF-7) [1] | SI (HCT 116) [2] | IC50 [3, 8] [µM] | IC50 [2, 9] [µM] | further results
1 | OCCn1cc(CNc2cccc3cccnc23)nn1 [Compound 19] | 116 ± 2.7 | >6.9 | >1.2 | > 800 | – | –
2 | Nc1cccc2cccnc12 [Compound 1, 8-Aminoquinoline, reference compound] | – | – | – | – | – | IC50 ([1]; MCF7, 72 h): > 400 µM; IC50 ([2]; Homo sapiens, HCT-116, 24 h): > 800 µM; IC50 ([3]; 24 h): > 800 µM
3 | OCc1cn(CCCNc2cccc3cccnc23)nn1 [Compound 20, 4-Hydroxymethyl-1-(8-quinolinylaminopropyl)-1H-1,2,3-triazol] | 150 ± 1.8 | >5.3 | >2.4 | > 800 | 329 ± 5.4 | –
4 | CC(=O)OC[C@H]1O[C@@H](n2cc(CNc3cccc4cccnc34)nn2)[C@H](OC(C)=O)[C@@H](OC(C)=O)[C@@H]1OC(C)=O [Compound 13] | > 800 | – | – | > 800 | > 800 | IC50 [4]: 71.3 ± 4.5 µM; increase of cytotoxicity in the presence of Cu(II) ions versus without copper [4]: more than ten times; SI (MCF-7) + Cu2+ [4]: >2.8; CC50 [5]: > 200 µM; IC50 [6]: 118 ± 5 µM; SI (HCT 116) + Cu2+ [6]: >1.7
5 | CC(=O)OC[C@H]1O[C@@H](OCc2cn(CCCNc3cccc4cccnc34)nn2)[C@H](OC(C)=O)[C@@H](OC(C)=O)[C@@H]1OC(C)=O [Compound 17] | 78.1 ± 9.3 | 5.3 | 3.6 | 416 ± 12.4 | 116 ± 5.9 | IC50 [4]: 34.8 ± 0.7 µM; SI (MCF-7) + Cu2+ [4]: >5.7; CC50 [5]: > 200 µM; IC50 [6]: 71.9 ± 1.7 µM; SI (HCT 116) + Cu2+ [6]: >2.8
6 | CC(=O)OC[C@H]1O[C@@H](N=[N+]=[N-])[C@H](OC(C)=O)[C@@H](OC(C)=O)[C@H]1OC(C)=O [Compound 8, 2,3,4,6-tetra-O-acetyl-β-D-galactopyranosyl azide] | > 800 | – | – | > 800 | > 800 | –
7 | CC(=O)OC[C@H]1O[C@@H](N=[N+]=[N-])[C@H](OC(C)=O)[C@@H](OC(C)=O)[C@@H]1OC(C)=O [Compound 7, 2,3,4,6-tetra-O-acetyl-β-D-glucopyranosyl azide] | > 800 | – | – | > 800 | > 800 | –
8 | CC(=O)OC[C@H]1O[C@@H](OCCn2cc(CNc3cccc4cccnc34)nn2)[C@H](OC(C)=O)[C@@H](OC(C)=O)[C@H]1OC(C)=O [Compound 16] | 227 ± 6.3 | – | >2.7 | > 800 | 227 ± 6.3 | IC50 [4]: 31.8 ± 4.9 µM; increase of cytotoxicity in the presence of Cu(II) ions versus without copper [4]: approximately six-fold; SI (MCF-7) + Cu2+ [4]: >6.3; CC50 [5]: > 200 µM; IC50 [2, 8]: 290 ± 9.7 µM; IC50 [6]: 70.8 ± 3.9 µM; SI (HCT 116) + Cu2+ [6]: >2.8
9 | [N-]=[N+]=NCCCNc1cccc2cccnc12 [Compound 5, N-(3-azidopropyl)quinolin-8-amine] | 47.1 ± 8.49 | – | – | 415 ± 10.6 | 115 ± 13.4 | –
10 | CC(=O)OC[C@H]1O[C@@H](n2cc(COc3cccc4cccnc34)nn2)[C@H](OC(C)=O)[C@@H](OC(C)=O)[C@H]1OC(C)=O [Compound 14a, reference compound] | 4.1 ± 0.03 | 7.8 | 1.4 | 31.9 ± 1.6 | 22.7 ± 1.6 | –
11 | CC(=O)OC[C@H]1O[C@@H](OCCN=[N+]=[N-])[C@H](OC(C)=O)[C@@H](OC(C)=O)[C@@H]1OC(C)=O [Compound 9, 2-azidoethyl 2,3,4,6-tetra-O-acetyl-β-D-glucopyranoside] | > 800 | – | – | > 800 | > 800 | –
12 | CC(=O)OC[C@H]1O[C@@H](OCc2cn(CCCNc3cccc4cccnc34)nn2)[C@H](OC(C)=O)[C@@H](OC(C)=O)[C@H]1OC(C)=O [Compound 18] | 96.8 ± 6 | 6.0 | 3.2 | 585 ± 7.1 | 182 ± 15.6 | IC50 [4]: 35.4 ± 0.1 µM; SI (MCF-7) + Cu2+ [4]: >5.6; CC50 [5]: > 200 µM; IC50 [6]: 43.4 ± 2.4 µM; SI (HCT 116) + Cu2+ [6]: >4.6
13 | C#CCO[C@@H]1O[C@H](COC(C)=O)[C@@H](OC(C)=O)[C@H](OC(C)=O)[C@H]1OC(C)=O [Compound 11, propargyl 2,3,4,6-tetra-O-acetyl-β-D-glucopyranoside] | > 800 | – | – | > 800 | > 800 | –
14 | Oc1cccc2cccnc12 [Compound 2, 8-hydroxyquinoline, reference compound] | – | 3.1 | 1 | – | – | IC50 ([1]; MCF7, 72 h): 3.01 ± 0.05 µM; IC50 ([2]; Homo sapiens, HCT-116, 24 h): 9.33 ± 0.22 µM; IC50 ([3]; 24 h): 9.34 ± 0.25 µM
15 | OCc1cn(CCCOc2cccc3cccnc23)nn1 [Compound 20a, reference compound] | 602.9 ± 1.9 | >1.3 | – | > 800 | > 800 | –
16 | CC(=O)OC[C@H]1O[C@@H](OCCn2cc(CNc3cccc4cccnc34)nn2)[C@H](OC(C)=O)[C@@H](OC(C)=O)[C@@H]1OC(C)=O [Compound 15] | 103 ± 5.7 | >7.8 | >2.8 | > 800 | 284.2 ± 2.3 | IC50 [4]: 34.1 ± 5 µM; SI (MCF-7) + Cu2+ [4]: >5.9; CC50 [5]: > 200 µM; IC50 [6]: 80.5 ± 2.2 µM; SI (HCT 116) + Cu2+ [6]: >2.5
17 | [N-]=[N+]=NCCCOc1cccc2cccnc12 [Compound 6, 8-(3-azidopropoxy)quinoline] | – | – | – | – | – | IC50 ([3]; 24 h): 782 ± 8.7 µM
18 | C#CCNc1cccc2cccnc12 [Compound 3, N-(prop-2-yn-1-yl)quinolin-8-amine] | 295 ± 8.49 | – | – | > 800 | 550 ± 16.4 | –
19 | CC(=O)OC[C@H]1O[C@@H](n2cc(CNc3cccc4cccnc34)nn2)[C@H](OC(C)=O)[C@@H](OC(C)=O)[C@H]1OC(C)=O [Compound 14] | 204.2 ± 1.4 | >3.9 | >2.8 | > 800 | 282 ± 20.7 | IC50 [4]: 34.7 ± 5 µM; increase of cytotoxicity in the presence of Cu(II) ions versus without copper [4]: approximately six-fold; SI (MCF-7) + Cu2+ [4]: >5.8; CC50 [5]: > 200 µM; IC50 [6]: 87.1 ± 15.9 µM
20 | C#CCO[C@@H]1O[C@H](COC(C)=O)[C@H](OC(C)=O)[C@H](OC(C)=O)[C@H]1OC(C)=O [Compound 12, propargyl 2,3,4,6-tetra-O-acetyl-β-D-galactopyranoside] | > 800 | – | – | > 800 | > 800 | –
21 | CC(=O)OC[C@H]1O[C@@H](n2cc(COc3cccc4cccnc34)nn2)[C@H](OC(C)=O)[C@@H](OC(C)=O)[C@@H]1OC(C)=O [Compound 13a, reference compound] | 57.7 ± 3.3 | 1.0 | 0.8 | 57.4 ± 3.2 | 69 ± 2.5 | –
22 | OCCn1cc(COc2cccc3cccnc23)nn1 [Compound 19a, reference compound] | > 800 | – | – | > 800 | > 800 | –
23 | CC(=O)OC[C@H]1O[C@@H](OCCN=[N+]=[N-])[C@H](OC(C)=O)[C@@H](OC(C)=O)[C@H]1OC(C)=O [Compound 10, 2-azidoethyl 2,3,4,6-tetra-O-acetyl-β-D-galactopyranoside] | > 800 | – | – | > 800 | > 800 | –
